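Where inhibition never reached the appropriate level, the endpoint shown equals the highest concentration tested. Otherwise, values were interpolated linearly from a five-concentration, 48-hour dose response in 96-well plates. The concentration for 50% growth inhibition is given as GI50. The concentration for full growth arrest is given as TGI.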
Tests used:
Experiment in all cases: inhibition of tumour cell growth, NCI panel, 48 h
OVCAR-4 ovarian = test system: OVCAR-4 ovarian
IGROV1 ovarian = test system: IGROV1 ovarian
HCT-15 colon = test system: HCT-15 colon
HL-60(TB) leukemia = test system: HL-60(TB) leukemia
NCI-H460 lung = test system: NCI-H460 lung
PC-3 prostate = test system: PC-3 prostate
CAKI-1 renal = test system: CAKI-1 renal
LOX IMVI melanoma = test system: LOX IMVI melanoma
OVCAR-3 ovarian = test system: OVCAR-3 ovarian
HCC-2998 colon = test system: HCC-2998 colon
UACC-62 melanoma = test system: UACC-62 melanoma
SR leukemia = test system: SR leukemia
MDA-MB-231 breast = test system: MDA-MB-231 breast
HOP-62 NSCLC = test system: HOP-62 NSCLC
SK-OV-3 ovarian = test system: SK-OV-3 ovarian
ACHN renal = test system: ACHN renal
SK-MEL-2 melanoma = test system: SK-MEL-2 melanoma
CCRF-CEM leukemia = test system: CCRF-CEM leukemia
RXF 393 renal = test system: RXF 393 renal
SW-620 colon = test system: SW-620 colon
786-0 renal = test system: 786-0 renal
EKVX NSCLC = test system: EKVX NSCLC
KM12 colon = test system: KM12 colon
MDA-MB-435 = test system: MDA-MB-435
TK-10 renal = test system: TK-10 renal
HT29 colon = test system: HT29 colon
UO-31 renal = test system: UO-31 renal
A498 renal = test system: A498 renal
SK-MEL-28 melanoma = test system: SK-MEL-28 melanoma
MALME-3M melanoma = test system: MALME-3M melanoma
DU-145 prostate = test system: DU-145 prostate
COLO 205 colon = test system: COLO 205 colon
HS 578T breast = test system: HS 578T breast
MOLT-4 leukemia = test system: MOLT-4 leukemia
K-562 leukemia = test system: K-562 leukemia
UACC-257 melanoma = test system: UACC-257 melanoma
SK-MEL-5 melanoma = test system: SK-MEL-5 melanoma
RPMI-8226 leukemia = test system: RPMI-8226 leukemia
SN12C renal = test system: SN12C renal
SF-268 CNS = test system: SF-268 CNS
SNB-19 CNS = test system: SNB-19 CNS
U251 CNS = test system: U251 CNS
NCI-H522 lung = test system: NCI-H522 lung
HOP-92 NSCLC = test system: HOP-92 NSCLC
NCI-H226 lung = test system: NCI-H226 lung
HCT-116 colon = test system: HCT-116 colon
OVCAR-5 ovarian = test system: OVCAR-5 ovarian
A549 NSCLC = test system: A549 NSCLC
NCI-H23 lung = test system: NCI-H23 lung
M14 melanoma = test system: M14 melanoma
SNB-75 CNS = test system: SNB-75 CNS
SF-295 CNS = test system: SF-295 CNS
SF-539 CNS = test system: SF-539 CNS
BT-549 breast = test system: BT-549 breast
MCF7 breast = test system: MCF7 breast
OVCAR-8 ovarian = test system: OVCAR-8 ovarian

N#Cc1nc(-c2cccnc2)oc1N
TGI (OVCAR-4 ovarian): > 100000 nM | TGI (IGROV1 ovarian): > 100000 nM | TGI (HCT-15 colon): > 100000 nM | TGI (HL-60(TB) leukemia): > 100000 nM | TGI (NCI-H460 lung): > 100000 nM | TGI (PC-3 prostate): > 100000 nM | TGI (CAKI-1 renal): > 100000 nM | TGI (LOX IMVI melanoma): > 100000 nM | TGI (OVCAR-3 ovarian): > 100000 nM | TGI (HCC-2998 colon): > 100000 nM | TGI (UACC-62 melanoma): > 100000 nM | TGI (SR leukemia): > 100000 nM | TGI (MDA-MB-231 breast): > 100000 nM | TGI (HOP-62 NSCLC): > 100000 nM | TGI (SK-OV-3 ovarian): > 100000 nM | TGI (ACHN renal): > 100000 nM | TGI (SK-MEL-2 melanoma): > 100000 nM | TGI (CCRF-CEM leukemia): > 100000 nM | TGI (RXF 393 renal): > 100000 nM | TGI (SW-620 colon): > 100000 nM | TGI (786-0 renal): > 100000 nM | TGI (EKVX NSCLC): > 100000 nM | TGI (KM12 colon): > 100000 nM | TGI (MDA-MB-435): > 100000 nM | TGI (TK-10 renal): > 100000 nM | TGI (HT29 colon): > 100000 nM | TGI (UO-31 renal): > 100000 nM | TGI (A498 renal): > 100000 nM | TGI (SK-MEL-28 melanoma): > 100000 nM | TGI (MALME-3M melanoma): > 100000 nM | TGI (DU-145 prostate): > 100000 nM | TGI (COLO 205 colon): > 100000 nM | TGI (HS 578T breast): > 100000 nM | TGI (MOLT-4 leukemia): > 100000 nM | TGI (K-562 leukemia): > 100000 nM | TGI (UACC-257 melanoma): > 100000 nM | TGI (SK-MEL-5 melanoma): > 100000 nM | TGI (RPMI-8226 leukemia): > 100000 nM | TGI (SN12C renal): > 100000 nM | TGI (SF-268 CNS): > 100000 nM | TGI (SNB-19 CNS): > 100000 nM | TGI (U251 CNS): > 100000 nM | TGI (NCI-H522 lung): > 100000 nM | TGI (HOP-92 NSCLC): > 100000 nM | TGI (NCI-H226 lung): > 100000 nM | TGI (HCT-116 colon): > 100000 nM | TGI (OVCAR-5 ovarian): > 100000 nM

CCOC(=O)c1ccc(NC(=O)Nc2nccs2)cc1
GI50 (OVCAR-4 ovarian): 63.1 nM | TGI (OVCAR-4 ovarian): > 66300 nM | GI50 (IGROV1 ovarian): 64 nM | TGI (IGROV1 ovarian): 24000 nM | GI50 (HCT-15 colon): 36.4 nM | TGI (HCT-15 colon): > 45500 nM | GI50 (HL-60(TB) leukemia): 459 nM | TGI (HL-60(TB) leukemia): 7760 nM | GI50 (NCI-H460 lung): 37.5 nM | TGI (NCI-H460 lung): 2060 nM | GI50 (PC-3 prostate): 443 nM | TGI (PC-3 prostate): 39800 nM | GI50 (CAKI-1 renal): 398 nM | TGI (CAKI-1 renal): 44800 nM | GI50 (LOX IMVI melanoma): 98.7 nM | TGI (LOX IMVI melanoma): 50100 nM | GI50 (A549 NSCLC): 72.5 nM | GI50 (NCI-H23 lung): 66.8 nM | TGI (NCI-H23 lung): 36600 nM | GI50 (M14 melanoma): 34.6 nM | TGI (M14 melanoma): > 100000 nM | GI50 (SNB-75 CNS): 1550 nM | TGI (SNB-75 CNS): > 48900 nM | GI50 (HCC-2998 colon): 204 nM | TGI (HCC-2998 colon): 4450 nM | GI50 (UACC-62 melanoma): 44 nM | TGI (UACC-62 melanoma): 20400 nM | GI50 (SR leukemia): 30.2 nM | GI50 (MDA-MB-231 breast): 275 nM | TGI (MDA-MB-231 breast): 2980 nM | GI50 (HOP-62 NSCLC): 2510 nM | TGI (HOP-62 NSCLC): > 45100 nM | GI50 (SK-OV-3 ovarian): 44.5 nM | TGI (SK-OV-3 ovarian): 9760 nM | GI50 (ACHN renal): 297 nM | TGI (ACHN renal): > 100000 nM | GI50 (SK-MEL-2 melanoma): 819 nM | TGI (SK-MEL-2 melanoma): 46800 nM | GI50 (CCRF-CEM leukemia): 448 nM | TGI (CCRF-CEM leukemia): > 100000 nM | GI50 (SF-295 CNS): 627 nM | TGI (SF-295 CNS): 15500 nM | GI50 (SF-539 CNS): 106 nM | TGI (SF-539 CNS): 385 nM | GI50 (RXF 393 renal): 43.4 nM | TGI (RXF 393 renal): > 100000 nM | GI50 (SW-620 colon): 28.3 nM | TGI (SW-620 colon): 35600 nM | GI50 (786-0 renal): 716 nM | TGI (786-0 renal): > 46400 nM | GI50 (EKVX NSCLC): 162 nM | TGI (EKVX NSCLC): > 96600 nM | GI50 (KM12 colon): 110 nM | TGI (KM12 colon): 1010 nM | GI50 (TK-10 renal): 38.1 nM | TGI (TK-10 renal): 669 nM | GI50 (BT-549 breast): 328 nM | TGI (BT-549 breast): 2540 nM | GI50 (HT29 colon): 33.6 nM | GI50 (UO-31 renal): 490 nM | TGI (UO-31 renal): 57800 nM | GI50 (A498 renal): 79.5 nM | TGI (A498 renal): 568 nM | GI50 (SK-MEL-28 melanoma): 71.2 nM | TGI (SK-MEL-28 melanoma): 25800 nM | GI50 (MALME-3M melanoma): 1240 nM | TGI (MALME-3M melanoma): 31500 nM | GI50 (DU-145 prostate): 107 nM | TGI (DU-145 prostate): 690 nM | GI50 (COLO 205 colon): 33.6 nM | TGI (COLO 205 colon): 117 nM | GI50 (MCF7 breast): 30.9 nM | TGI (MCF7 breast): 13900 nM | GI50 (HS 578T breast): 33 nM | TGI (HS 578T breast): 33200 nM | GI50 (MOLT-4 leukemia): 379 nM | TGI (MOLT-4 leukemia): 31300 nM | GI50 (K-562 leukemia): 31.4 nM | TGI (K-562 leukemia): 30100 nM | GI50 (UACC-257 melanoma): 11100 nM | TGI (UACC-257 melanoma): 24100 nM | GI50 (SK-MEL-5 melanoma): 28.5 nM | TGI (SK-MEL-5 melanoma): 211 nM | GI50 (RPMI-8226 leukemia): 698 nM | TGI (RPMI-8226 leukemia): > 39500 nM | GI50 (SN12C renal): 371 nM | TGI (SN12C renal): 27100 nM | GI50 (SF-268 CNS): 201 nM | TGI (SF-268 CNS): 16900 nM | GI50 (SNB-19 CNS): 128 nM | TGI (SNB-19 CNS): 42800 nM | GI50 (U251 CNS): 47.8 nM | TGI (U251 CNS): 25100 nM | GI50 (NCI-H522 lung): 72.4 nM | TGI (NCI-H522 lung): 688 nM | GI50 (HOP-92 NSCLC): 5250 nM | TGI (HOP-92 NSCLC): 40400 nM | GI50 (OVCAR-8 ovarian): 53.2 nM | TGI (OVCAR-8 ovarian): 3170 nM | GI50 (NCI-H226 lung): 363 nM | GI50 (HCT-116 colon): 60.5 nM | GI50 (OVCAR-5 ovarian): 1100 nM | TGI (OVCAR-5 ovarian): > 100000 nM
